Results: publication PMC10562414, “GLP-1R signaling neighborhoods associate with the susceptibility to adverse drug reactions of incretin mimetics” (Nature Communications, 2023)

Tests used:
[1] = test system: GLP-1R-expressing HEK293 cells (phosphoproteome); test: Phosphoproteomics, GLP-1R-transfected cells, 30 min (experiment 2); assay type: cell-based, human; conditions: GLP transfection, 1 μM
Description: P values were calculated by a two-sided unpaired t-test.
HEK293 cells (350,000 cells/mL) were transfected in suspension using 3 μg of linear PEI (MW 25,000) per 1 μg of plasmid DNA and seeded onto poly-D-lysine-coated 60 mm dishes at a density of 1,750,000 cells per dish. After a 24-h incubation, cells were washed twice with PBS and placed in starvation media (DMEM with penicillin/streptomycin). After a 48-h incubation, cells were washed twice with HBSS and maintained in the same buffer. […] Cell extracts were prepared as previously described[64]–[66]. In short, 200 μL of the lysis buffer preheated at 95 °C (4% sodium dodecyl sulfate in 50 mM Tris adjusted to pH 8.5) was added to the cells. The samples were then denatured at 95 °C for 10 min, placed on ice and then sonicated using a probe sonicator (3 sec on, 3 sec off pulse, 1 min, 30% amplitude) (Branson). Lysate protein concentration was determined using the Pierce bicinchoninic acid assay kit (Thermo Fisher Scientific) according to the manufacturer’s instructions. The lysates were reduced using 5 mM dithiothreitol for 1 h at room temperature and alkylated using 15 mM iodoacetamide for 1 h at room temperature in the dark. Proteins were precipitated and digested on beads using MagReSyn Amine magnetic beads (ReSyn Biosciences) according to the manufacturer’s instructions. Protein digestion was conducted overnight at 37 °C with lysyl endopeptidase (LysC, Wako) (1:150 LysC/protein, w/w) and trypsin (1:300 trypsin/protein, w/w). 20% TFA, 2 M glycolic acid in 80% ACN were added to the samples at a 1:1 ratio for phosphopeptide enrichment using MagReSyn TiO2 magnetic beads (ReSyn Biosciences) according to the manufacturer’s instructions. The enriched phosphopeptides were dried overnight in a SpeedVac, resuspended into 5% formic acid (FA), desalted using StageTip (Thermo Fisher Scientific) according to the manufacturer’s instructions and dried in a SpeedVac. The experiment was performed in biological triplicates.
All parameters and settings regarding the acquisition of the proteomics data can be found in Supplementary Data 11, 12. For data acquisition, the instrument was set to peptide mode, with a trapping pressure set as low (2mTorr). An EASY-Spray Source (Thermo Fisher Scientific) was used and the column temperature was maintained with the integrated, temperature-controlled heater at 55 °C throughout the experiment. For the data presented in Fig. 5d, the column was heated at 50 °C following the manufacturer’s instructions (IonOpticks).
Acquired raw files were converted to mzML format by MSConvert (version 3.0.21258)[67] applying peak picking of the mass spectra with the vendor-provided algorithm (Thermo Fisher Scientific). The mzML files were analyzed using the FragPipe GUI v18 for both library and DIA search. […] Trypsin with up to 2 missed cleavages was set as digestion enzyme, oxidation of methionine, acetylation of the N-terminus and phosphorylation on serine, threonine and tyrosine (maximal occurrence was set to three) were set as variable modifications. Carbamidomethylation of cysteine residues was set as a fixed modification. Peptide length was restricted to 7 to 50 amino acids, and 500 to 5000 Da. […] DIA files were analyzed by DIA-NN 1.8.1[71], [72] using the previously generated library and monitor-command mode. Peptide quantification was performed based on the fragment elution profiles from the MS2 level (area under the curve). […]

GLP-1R [2] = molecular target: T1, GLP-1R (Homo sapiens, UniProt P43220); test: ebBRET pathway activation (15 transducers), normalized efficacy and potency, Supplementary Fig. 11 (cellular compartment not given); assay type: cell-based
GLP-1R [3] = molecular target: T1, GLP-1R; test: Inverted Gini coefficients for pathway selectivity (efficacy, potency) per compartment
Description: Inverted Gini coefficients depict differences in drug-induced pathway selectivity for efficacy and potency. Inverted Gini coefficients were calculated to compare the similarities among the 15 tested pathways (Gs, Gq, G11 , G14, G15, G12, G13, Gi1, Gi2, Gi3, GoA, GoB, Gz, GRK/Gb g and bARR) for efficacy (a) and potency (b) across the four compartments included in this study (PM, EE, GA, ER) where 1 represents equality and 0 represents dissimilarity.

T1 sequence (P43220 24-463): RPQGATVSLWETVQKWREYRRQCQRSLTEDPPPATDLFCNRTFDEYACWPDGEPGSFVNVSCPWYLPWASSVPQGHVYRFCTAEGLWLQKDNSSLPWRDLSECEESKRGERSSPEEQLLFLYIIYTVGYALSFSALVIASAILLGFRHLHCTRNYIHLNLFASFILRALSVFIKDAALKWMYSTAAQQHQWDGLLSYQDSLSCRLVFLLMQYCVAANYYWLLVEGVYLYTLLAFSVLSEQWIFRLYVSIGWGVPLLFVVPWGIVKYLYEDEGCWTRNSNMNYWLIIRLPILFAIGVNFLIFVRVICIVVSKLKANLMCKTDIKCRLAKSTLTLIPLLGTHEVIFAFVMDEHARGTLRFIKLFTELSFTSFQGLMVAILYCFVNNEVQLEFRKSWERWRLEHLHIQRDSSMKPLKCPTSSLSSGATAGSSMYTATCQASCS

Compound: N#Cc1ccc(COc2cccc(C3CCN(Cc4nc5ccc(C(=O)O)cc5n4C[C@@H]4CCO4)CC3)n2)c(F)c1 [Danuglipron]
- log2.foldchange, PABPN1 S19 ([1]; vs time-matched vehicle, p […], n = 3): 1.128
- log2.foldchange, VPS51 S13 ([1]; vs vehicle, p 0.15884, n = 3): -0.5399
- log2.foldchange, EIF3J S20 ([1]; vs vehicle, p 0.656982, n = 3): -0.08041
- log2.foldchange, EIF3J S11 ([1]; vs vehicle, p 0.693473, n = 3): -0.5463
- log2.foldchange, VPS51 S18 ([1]; vs vehicle, p 0.842243, n = 3): 0.02396
- Efficacy (normalized), GRK2/Gβγ (GLP-1R [2]; Supplementary Fig. 11a, GRK2/Gβγ): 0.507
- Efficacy (normalized), Gα11 (GLP-1R [2]; Supplementary Fig. 11a, Gα11): 0
- Efficacy (normalized), Gα12 (GLP-1R [2]; Supplementary Fig. 11a, Gα12): 0
- Efficacy (normalized), Gα13 (GLP-1R [2]; Supplementary Fig. 11a, Gα13): 0
- Efficacy (normalized), Gα14 (GLP-1R [2]; Supplementary Fig. 11a, Gα14): 0.9516
- Efficacy (normalized), Gα15 (GLP-1R [2]; Supplementary Fig. 11a, Gα15): 0
- Efficacy (normalized), Gαi1 (GLP-1R [2]; Supplementary Fig. 11a, Gαi1): 0
- Efficacy (normalized), Gαi2 (GLP-1R [2]; Supplementary Fig. 11a, Gαi2): 0
- Efficacy (normalized), Gαi3 (GLP-1R [2]; Supplementary Fig. 11a, Gαi3): 0
- Efficacy (normalized), GαoA (GLP-1R [2]; Supplementary Fig. 11a, GαoA): 0.4649
- Efficacy (normalized), GαoB (GLP-1R [2]; Supplementary Fig. 11a, GαoB): 0.7256
- Efficacy (normalized), Gαq (GLP-1R [2]; Supplementary Fig. 11a, Gαq): 0
- Efficacy (normalized), Gαs (GLP-1R [2]; Supplementary Fig. 11a, Gαs): 0
- Efficacy (normalized), Gαz (GLP-1R [2]; Supplementary Fig. 11a, Gαz): 0.5189
- Efficacy (normalized), βARR2 (GLP-1R [2]; Supplementary Fig. 11a, βARR2): 0.458
- Potency (logEC50), Gα11 (GLP-1R [2]; Supplementary Fig. 11b, Gα11): 0
- Potency (logEC50), Gα12 (GLP-1R [2]; Supplementary Fig. 11b, Gα12): 0
- Potency (logEC50), Gα13 (GLP-1R [2]; Supplementary Fig. 11b, Gα13): 0
- Potency (logEC50), Gα14 (GLP-1R [2]; Supplementary Fig. 11b, Gα14): 0.7414
- Potency (logEC50), Gα15 (GLP-1R [2]; Supplementary Fig. 11b, Gα15): 0
- Potency (logEC50), Gαi1 (GLP-1R [2]; Supplementary Fig. 11b, Gαi1): 0
- Potency (logEC50), Gαi2 (GLP-1R [2]; Supplementary Fig. 11b, Gαi2): 0
- Potency (logEC50), Gαi3 (GLP-1R [2]; Supplementary Fig. 11b, Gαi3): 0
- Potency (logEC50), GαoA (GLP-1R [2]; Supplementary Fig. 11b, GαoA): 0.573
- Potency (logEC50), GαoB (GLP-1R [2]; Supplementary Fig. 11b, GαoB): 0.2577
- Potency (logEC50), Gαq (GLP-1R [2]; Supplementary Fig. 11b, Gαq): 0
- Potency (logEC50), Gαs (GLP-1R [2]; Supplementary Fig. 11b, Gαs): 0
- Potency (logEC50), Gαz (GLP-1R [2]; Supplementary Fig. 11b, Gαz): 0.2291
- Potency (logEC50), βARR2 (GLP-1R [2]; Supplementary Fig. 11b, βARR2): 0.384
- 1 - Gini (GLP-1R [3]; Early endosomes, Supplementary Fig. 18a): 0.2929
- 1 - Gini (GLP-1R [3]; Early endosomes, Supplementary Fig. 18b): 0.7742
- 1 - Gini (GLP-1R [3]; Endoplasmic reticulum, Supplementary Fig. 18a): 0.09
- 1 - Gini (GLP-1R [3]; Endoplasmic reticulum, Supplementary Fig. 18b): 0.8902
- 1 - Gini (GLP-1R [3]; Golgi apparatus, Supplementary Fig. 18a): 0.1115
- 1 - Gini (GLP-1R [3]; Golgi apparatus, Supplementary Fig. 18b): 0.854
- 1 - Gini (GLP-1R [3]; Plasma membrane, Supplementary Fig. 18a): 0.403
- 1 - Gini (GLP-1R [3]; Plasma membrane, Supplementary Fig. 18b): 0.7941
